Test results from patent publication EP2308983B1, “Cytochrome P450 from Rhizopus oryzae and uses thereof” (Univerza v Ljubljani, priority 2009, dated 2011).

Experiments:
CYP509C12 [1] = assay: Steroid hydroxylation assay of recombinant S. pombe strain SpoC12 expressing CYP509C12 (whole-cell biotransformation, HPLC and LC/MS); conditions: for efficiency of total steroid hydroxylation: 28 °C
Experimental: S. pombe cells, grown as described in the previous section, were washed with EMM, centrifuged (4000 × g, 5 min, 4 °C) and suspended in 10 mL of fresh medium to a final density of 10^8 cells mL^-1. […] 500 µL of SpoC12 yeast culture was taken after different time periods and the steroids were extracted twice with chloroform, evaporated, solved in acetonitrile, and analyzed by HPLC. The steroid extracts from whole cell cultures growing for 24 h were analyzed by LC/MS.
Reverse phase HPLC using an isocratic solvent system of acetonitrile:H2O 60:40 (v/v) as mobile phase, flow rate […], was carried out on a WellChrom system (Knauer, Berlin, Germany) composed of an auto-sampler AS-2050 plus, Mini-Star K-500 pump, Jet Stream II Plus thermostat, and an UV-detector WellChrom Spectro Photometer K-2600, equipped with a C18 ODS Hypersil 250 x 4.6 mm, 5 µm particle column from Thermo® (Waltham, MA, USA). Steroids were detected at 240 nm and the peak area calculation was done using the EuroChrom 2000 software (Knauer). Steroid standards were used to identify the HPLC peaks and to construct calibration curves. Concentrations of steroids were determined using calibration curves in the range of 0.05 -1 mg mL^-1 of each analyte. […] The peak area of a specific steroid at each time point was assessed relative to the total area of identified steroid peaks.
Mass measurements were run on a hybrid quadruple time of flight mass spectrometer (Q-TOF) provided with an orthogonal Z-spray ESI interface (Waters Micromass, Manchester, UK). Mass spectrometer was interfaced to an ultra performance liquid chromatography (UPLC) system based on a Waters Acquity (Waters, Milford, USA) binary pump with a BEH C-18 column (1.7 µm, 50 mm x 2.1 mm i.d.). The mobile phases consisted of water and acetonitrile with mixture of 0.1 % of formic acid in water. Compressed nitrogen (99.999 %, Messer, Slovenia) was used as both the drying and the nebulizing gas. The nebulizer gas flow rate was set to approximately 20 L h^-1 and the desolvation gas flow rate to 600 L h^-1. A cone voltage of 30 V and a capillary voltage of 2.7 kV were used in positive ion mode. The desolvation temperature was set to 250 °C and the source temperature to 150 °C. The mass resolution of approximately 9500 was used for determination of elemental composition with TOF mass spectrometer. Full width of the peak was measured at half of its maximum height. MS were acquired in centroid mode over an m/z range of 50-1000 in scan time 0.25 s and inter scan time 0.05 s. The data station operating software was Mass Lynx v 4.1 (Micromass, Manchester).

CYP509C12 [2] = assay: Real time RT PCR of P450 gene expression in fungus exposed to progesterone; assay type: cell-based, R. oryzae; conditions: 300 µM progesterone, up-regulated within 20 minutes, Wilcoxon's test p value < 0.05
Experimental: (§1) Samples of 2 µg of RNA were treated with DNAse 1 and reverse-transcribed with random hexamer primers using RevertAid™ H Minus First Strand cDNA Synthesis Kit (Fermentas, Canada) following the manufacturer's instructions. Based on multiple alignments of deduced P450 families, the amplification of the cDNA of 31 P450 genes was carried out under conventional conditions using gene-specific primers which were designed with Primer Express (Applied Biosystems, CA, USA, (AB)). The specificity of each primer pair was verified by sequencing of amplified genomic fragments (Sequiserve, Vaterstetten, Germany).
(§2) Quantitative RT PCR using SYBR green Mastermix (AB) was performed for 9 selected genes in an ABI Prism 7500 Real Time System (AB) according to the manufacturer's instructions. Following amplification, a dissociation curve was performed on all PCR products to additionally ensure their specificity. The relative quantity of cDNA was calculated with the standard curve method and calibrated with a R. oryzae housekeeping Rossb1 gene (Broad ref. RO3G_01864.1), a homologue of the Saccharomyces cerevisiae ribosome-associated Hsp70 (SSB1), whose expression is not affected by steroid treatment. The expression levels of each P450 gene were normalized to those in the untreated control. The statistical significance of up- or down-regulation was evaluated using Wilcoxon's test with a cutoff p-value < 0.05.

CYP509C10 = conditions: 300 µM progesterone, up-regulated within 20 minutes, Wilcoxon's test p value < 0.05
Experimental: as §1, §2

CYP5204A1 = assay: Real time RT PCR of P450 gene expression in fungus exposed to progesterone; assay type: cell-based, R. oryzae; conditions: 300 µM progesterone, up-regulated within 20 minutes, Wilcoxon's test p value < 0.05
Experimental: as §1, §2

[3] = SpoC12, 300 µM steroid, 24 h, LC/MS

## C[C@]12CCC(=O)C=C1CC[C@@H]1[C@@H]2CC[C@@]2(C)[C@H]1CC[C@]2(O)C(=O)CO [RSS, 11-deoxycortisol]
CYP509C12 [1]; [3]
  efficiency of total steroid hydroxylation: 30%
  share of 6β-hydroxylated derivative in total hydroxylated products: more than half

## C[C@]12CC[C@H]3[C@@H](CCC4=CC(=O)CC[C@@]43C)[C@@H]1CC[C@@H]2C(=O)CO [DOC, 11-deoxycorticosterone]
CYP509C12 [1]; [3]
  efficiency of total steroid hydroxylation: 96%

## C[C@]12CC[C@H]3[C@@H](CCC4=CC(=O)CC[C@@]43C)[C@@H]1CC[C@@H]2O [testosterone]
CYP509C12 [1]; [3]
  efficiency of total steroid hydroxylation: 73%

## CC(=O)[C@H]1CC[C@H]2[C@@H]3CCC4=CC(=O)CC[C@]4(C)[C@H]3CC[C@]12C [progesterone]
CYP509C12 [2]
  transcript amount increase compared to the control: at least 32 fold
CYP509C12 [1]; SpoC12 versus R. oryzae cultures
  slower rate of progesterone hydroxylation in recombinant fission yeast compared to R. oryzae cultures: 10 fold
CYP509C10
  transcript amount increase compared to the control: at least 32 fold
CYP5204A1
  transcript amount increase compared to the control: at least 32 fold
